Design in all cases: GG stays after cleavage) (N); made in house; host or cells: E. coli BL21(DE3)
In experiment [1] the target is T1, PaPepA (Pseudomonas aeruginosa, UniProt Q02RY8). Put plainly: Metal activation of Leu-pNA cleavage (metal varied, Leu-pNA fixed). The note with it: with 2 mM Leu-pNA. The class given is biochemical. On the procedure:
A BMG Labtech POLARstar Omega plate reader was used for activity assays and kinetic studies involving amino acids conjugated to para-nitroaniline (pNA) (Sigma) or peptides as substrates. Assays were carried out at 25 °C in clear half-area 96-well plates (Greiner Bio-One). […] For kinetic assays investigating Leu-AMC as a substrate, a SpectraMax M2E was used. Reactions were carried out using black half-area 96-well plates with clear bottoms (Greiner Bio-One). Product formation was assessed by monitoring changes in fluorescence, with the excitation wavelength set at 341 nm and emission at 441 nm. The cutoff was 420 nm. PMT gain was set to medium, with six flashes per read. […] Calibration curves of pNA concentration vs absorbance and AMC vs fluorescence were constructed, and initial rate values were divided by the slope of these calibration curves to reveal the rate of product formation over time (Table S2).
For all assays excluding pH dependence curves, buffer conditions were as follows: 100 mM HEPES, 50 mM KCl, and pH 8.0. For assays carried out under pseudo-first-order conditions, one reaction component was fixed and in excess, while the other was varied. […] For assays involving variation of aa-pNA or aa-AMC, MnCl2 was added to a final concentration of 3 mM.

The target of experiment [2] is T1, PaPepA. Put plainly: Room-temperature EPR spectroscopy Mn2+ titration. The note with it: 20 μM PaPepA, 1:0.9 enzyme:Mn^2+ binding model, to be taken as upper limit. On the procedure:
EPR spectra were obtained with a Bruker EMX 10/12 spectrometer running Xenon software and equipped with an ELEXSYS Super Hi-Q resonator at an operating frequency of ∼9.5 GHz with a 100 kHz modulation. EPR spectra for Mn titrations were recorded at room temperature using a 160 mT field sweep centered at 350 mT, a time constant of 40.96 ms, a conversion time of 133.53 ms, and a 480-point resolution. An attenuation of 10 dB (20.7 mW power) and a modulation amplitude of 1 mT were used. Spectra were phase- and background-corrected, and the double integral was obtained using the Xenon software.
For acquiring EPR spectra, 20 μM PaPepA was used in 100 mM HEPES pH 7.5, 50 mM KCl with increasing concentration of MnCl2: 0–30 μM in steps of 2, 35, and 40 μM (18 steps). For the calibration curve, the same buffer and steps were employed in the absence of enzyme.

Experiment [3] addresses T1, PaPepA. The class given is biochemical. The source says:
Viscosity effects were studied by using sucrose as a viscogen. Relative viscosities for different concentrations of sucrose were taken from Bazelyansky et al.[27] Concentrations of viscogen were as follows: 14% sucrose, ηrel = 1.5; 24% sucrose, ηrel = 2.2; and 32% sucrose, ηrel = 2.9.
Viscosity effects were fit to the following equation, where kinetic parameter0 and kinetic parameterη are kcat or kcat/KM in the […] of viscogen, respectively, ηrel is the relative viscosity of the solution, and m is the slope. [drawing 4] 4
All measurements were performed in triplicate.

For experiment [4], the target named is T1, PaPepA. Put plainly: Solvent kinetic isotope effects. It counts as biochemical. The note with it: H2O vs 80% D2O, metal varied, Leu-pNA fixed, pH 8.0. How it is done: SKIEs were determined by plotting saturation curves in H2O or 80% D2O. […] Differences between reaction rates under initial velocity conditions were measured varying the concentration of either Leu-pNA or Mn^2+, while keeping the other component constant and in excess (at least 5× the value of KM or KACT, Scheme 2). Experiments were performed at pH 8.0 (100 mM HEPES, with 50 mM KCl). For proton inventory studies, D2O was varied from 0 to 80% in 10% increments. All proton inventory studies were carried out on the same day by using the same enzyme stock.
When calculating SKIEs, kcat and KM were obtained from the Michaelis–Menten curves in H2O. The 80% D2O Michaelis–Menten curve was fit to the following equation: [drawing 2] 2 where Fi is the fraction D2O, and EV/K and EV are the isotope effects −1 on kcat/KM and kcat, respectively.

[5] abbreviates: H2O (0% PEG-8000), MnCl2 varied.

These results are taken from article PMC10666288, “Unveiling the Catalytic Mechanism of a Processive Metalloaminopeptidase” (Biochemistry, 2023).

SMILES strings stand for the structures. Values joined by “and” are separate entries in the source; they are usually repeats but may differ in a detail not shown here. Identical values can stand only once. Like-named read-outs stand apart in the source and are kept apart here.

A word on the Kd: it is the free concentration of one partner at which half of the binding sites on the other are occupied at equilibrium, for simple one-to-one binding. Low readings indicate tighter binding, high ones weaker binding.

T1 sequence (Q02RY8 whole entry): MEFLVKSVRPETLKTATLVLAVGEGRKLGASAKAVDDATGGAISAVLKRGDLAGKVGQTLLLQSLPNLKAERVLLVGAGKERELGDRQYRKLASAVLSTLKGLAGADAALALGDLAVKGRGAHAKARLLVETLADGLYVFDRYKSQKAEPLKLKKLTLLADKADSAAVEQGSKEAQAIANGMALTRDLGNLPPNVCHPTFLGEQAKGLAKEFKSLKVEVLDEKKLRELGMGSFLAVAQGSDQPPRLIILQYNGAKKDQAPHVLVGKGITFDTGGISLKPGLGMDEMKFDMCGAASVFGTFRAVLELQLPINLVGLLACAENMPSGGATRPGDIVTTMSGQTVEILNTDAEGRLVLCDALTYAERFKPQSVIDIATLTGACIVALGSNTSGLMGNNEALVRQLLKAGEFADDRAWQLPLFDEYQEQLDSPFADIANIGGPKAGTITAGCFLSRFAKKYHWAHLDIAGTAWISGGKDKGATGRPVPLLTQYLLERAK

As to `[Mn+2]` [Mn^2+], the KACT was found to be 0.10 ± 0.01 mM on PaPepA [1] (pH 8.0); 0.1 mM on PaPepA [1] (pH 8.0, as given in text); 0.19 ± 0.01 on PaPepA [3] (setting [5]). Besides, the kcat was 0.27 s^–1 and 0.274 ± 0.004 s^–1 on PaPepA [1] (pH 8.0); 0.409 ± 0.009 at PaPepA [3] (H2O (0% PEG-8000), labelled component varied, other saturating, in 1/s). The kcat/KACT at PaPepA [1] (pH 8.0) was 2.7 ± 0.2 s^–1mM^–1; at PaPepA [3] (setting [5]) it was 2.2 ± 0.2. In addition, the Kd on PaPepA [2] is 174 nM and ~174 nM. In addition, the “Slope (sucrose) on kcat/KACT” value at PaPepA [3] (sucrose as viscogen, Mn2+ variation) was -0.10 ± 0.06. In addition, the “Slope (sucrose) on kcat” value at PaPepA [3] (sucrose as viscogen, labelled component varied) was found to be 0.14 ± 0.05. Further, at PaPepA [4], the “^D2Okcat” value is recorded as 3.9 ± 0.1. The “^D2Okcat/KACT” value at PaPepA [4] is reported as 1.9 ± 0.2.
